Test system: urinary bladder
Test: Cystometrography (rats): bladder capacity after intraduodenal administration
Type: in vivo
Conditions: female SD rats, urethane anesthesia, max of 0.5, 1, 2, 3 h, mean
Experimental: Cystometrography is a method for ascertaining the relation between intravesical pressure and bladder capacity and provides information on the time course of condition of the urinary bladder from urine filling to micturition, the possible involuntary contraction of the urinary bladder, and the contractility of the detrusor muscle during micturition.
The experiment was performed using 9 to 13-weeks old female SD rats in groups of 3-5. After a median incision was made in the abdominal region under urethane anesthesia, a polyethylene indwelling cannula was inserted into the urinary bladder dome through the apex of the urinary bladder and fixed. The other end of the cannula was connected to a T-tube for infusion of saline via one branch and changes in intravesical pressure were recorded via the other branch. When warmed saline was continuously infused into the urinary bladder at a constant rate, the urinary bladder was distended and, when the pressure reached a threshold, the urinary bladder underwent rapid contractions and at the same time a micturition was induced. This procedure was repeated until the volume of saline from the start of infusion to the threshold intravesical pressure (bladder capacity) became steady giving approximately constant values in at least two consecutive determinations. Then, the test compound was administered into the duodenum. The bladder capacity was measured immediately before administration of the test compound and 0.5, 1, 2, and 3 hours after administration. The maximum increase rate (%) in bladder capacity was calculated by means of the following equation.
Maximum increase rate in bladder capacity=[(A-B)/B]×100
where B represents the bladder capacity value immediately before administration of the test compound and A represents the maximum bladder capacity at 0.5, 1, 2, and 3 hours after administration of the test compound. The data shown are mean values.

Cc1c(-c2ccccc2F)[nH]c(N)c1C#N [compound 1, 2-Amino-3-cyano-4-methyl-5-(2-fluorophenyl)pyrrole]
Maximum increase rate (%) in bladder capacity (3 mg/kg): 60.8%

Cc1c(-c2cccnc2)[nH]c(N)c1C#N [compound 8, 2-Amino-3-cyano-4-methyl-5-(3-pyridyl)pyrrole]
Maximum increase rate (%) in bladder capacity (30 mg/kg): 55.4%

CCCOC(C(=O)OC1CCN(C)CC1)(c1ccccc1)c1ccccc1 [Propiverine, propiverine, reference compound]
Maximum increase rate (%) in bladder capacity (100 mg/kg): 42.0%

N#Cc1cc(-c2ccc(F)cc2)[nH]c1N [compound 41]
Maximum increase rate (%) in bladder capacity (10 mg/kg): 38.8%

Cc1c(-c2cc(F)ccc2F)[nH]c(N)c1C#N [compound 63, 2-Amino-3-cyano-4-methyl-5-(2,5-difluorophenyl)pyrrole]
Maximum increase rate (%) in bladder capacity (3 mg/kg): 49.9%

N#Cc1cc(-c2ccccc2)[nH]c1N [compound 15]
Maximum increase rate (%) in bladder capacity (10 mg/kg): 53.8%

Cc1c(-c2ccccc2)[nH]c(N)c1C#N [R1, 2-Amino-3-cyano-4-methyl-5-phenylpyrrole, reference compound]
Maximum increase rate (%) in bladder capacity (3 mg/kg): 63.6%

Source: US6172102A, “Pyrrole derivatives and medicinal composition” (Nippon Shinyaku Co., Ltd., priority 1995, dated 2001)
